Experimental data reported in ChEMBL document CHEMBL1649565, “Besifloxacin, a novel fluoroquinolone, has broad-spectrum in vitro activity against aerobic and anaerobic bacteria” (Antimicrob Agents Chemother, 2009).
Values after ≈ are worked out from the molar mass of the structure shown. Active and inactive are the calls of the source. The rule behind the calls is not given here.

What was measured:
Bacteroides fragilis [1] = assay: Antibacterial activity against Bacteroides fragilis assessed as percent susceptible isolates by CLSI M11-A7 method; format: functional
Prevotella sp. [2] = assay: Antibacterial activity against Prevotella sp. assessed as percent susceptible isolates by CLSI M11-A7 method; format: functional
Peptostreptococcus sp. [3] = assay: Antibacterial activity against Peptostreptococcus sp. assessed as percent susceptible isolates by CLSI M11-A7 method; format: functional
Fusobacterium sp. [4] = assay: Antibacterial activity against Fusobacterium sp. assessed as percent susceptible isolates by CLSI M11-A7 method; format: functional
Bacteroides fragilis [5] = assay: Antibacterial activity against Bacteroides fragilis by CLSI M11-A7 method; format: functional
Cutibacterium acnes [6] = assay: Antibacterial activity against Propionibacterium acnes by CLSI M11-A7 method; format: functional
Fusobacterium sp. [7] = assay: Antibacterial activity against Fusobacterium sp. by CLSI M11-A7 method; format: functional
Clostridium perfringens = assay: Antibacterial activity against Clostridium perfringens by CLSI M11-A7 method; format: functional
Prevotella sp. [8] = assay: Antibacterial activity against Prevotella sp. by CLSI M11-A7 method; format: functional
Peptostreptococcus sp. [9] = assay: Antibacterial activity against Peptostreptococcus sp. by CLSI M11-A7 method; format: functional
Cutibacterium acnes [10] = assay: Antibacterial activity against Propionibacterium acnes assessed as percent susceptible isolates by CLSI M11-A7 method; format: functional
Staphylococcus hominis [11] = assay: Antibacterial activity against Staphylococcus hominis by CLSI M100-S18 method; format: functional
Staphylococcus hominis [12] = assay: Antibacterial activity against Staphylococcus hominis assessed as percent susceptible isolates by CLSI M100-S18 method; format: functional
[13] = test system: Staphylococcus epidermidis; assay: Antibacterial activity against non-ciprofloxacin-susceptible and methicillin-susceptible Staphylococcus epidermidis by CLSI M100-S18 method; format: functional
Moraxella catarrhalis = assay: Antibacterial activity against Moraxella catarrhalis by CLSI M7-A7 method; format: functional
Staphylococcus aureus [14] = assay: Antibacterial activity against ciprofloxacin-susceptible and methicillin-resistant Staphylococcus aureus by CLSI M100-S18 method; format: functional
[15] = test system: Staphylococcus saprophyticus; assay: Antibacterial activity against Staphylococcus saprophyticus assessed as percent susceptible isolates by CLSI M100-S18 method; format: functional
[16] = test system: Staphylococcus epidermidis; assay: Antibacterial activity against ciprofloxacin-susceptible and methicillin-resistant Staphylococcus epidermidis by CLSI M100-S18 method; format: functional
[17] = test system: Staphylococcus epidermidis; assay: Antibacterial activity against non-ciprofloxacin-susceptible and methicillin-susceptible Staphylococcus epidermidis assessed as percent susceptible isolates by CLSI M100-S18 method; format: functional
Staphylococcus aureus [18] = assay: Antibacterial activity against ciprofloxacin-susceptible and methicillin-resistant Staphylococcus aureus assessed as percent susceptible isolates by CLSI M100-S18 method; format: functional
Staphylococcus aureus [19] = assay: Antibacterial activity against non-ciprofloxacin-susceptible and methicillin-susceptible Staphylococcus aureus by CLSI M100-S18 method; format: functional
Staphylococcus warneri [20] = assay: Antibacterial activity against Staphylococcus warneri assessed as percent susceptible isolates by CLSI M100-S18 method; format: functional
[21] = test system: Staphylococcus epidermidis; assay: Antibacterial activity against ciprofloxacin-susceptible and methicillin-resistant Staphylococcus epidermidis assessed as percent susceptible isolates by CLSI M100-S18 method; format: functional
[22] = test system: Staphylococcus haemolyticus; assay: Antibacterial activity against Staphylococcus haemolyticus by CLSI M100-S18 method; format: functional
[23] = test system: Staphylococcus lugdunensis; assay: Antibacterial activity against Staphylococcus lugdunensis by CLSI M100-S18 method; format: functional
[24] = test system: Staphylococcus epidermidis
[25] = test system: Staphylococcus epidermidis; remark: listed apart in the source
[26] = test system: Staphylococcus haemolyticus; assay: Antibacterial activity against Staphylococcus haemolyticus assessed as percent susceptible isolates by CLSI M100-S18 method; format: functional
Staphylococcus warneri [27] = assay: Antibacterial activity against Staphylococcus warneri by CLSI M100-S18 method; format: functional
Staphylococcus aureus [28] = assay: Antibacterial activity against non-ciprofloxacin-susceptible and methicillin-susceptible Staphylococcus aureus assessed as percent susceptible isolates by CLSI M100-S18 method; format: functional
[29] = test system: Staphylococcus saprophyticus; assay: Antibacterial activity against Staphylococcus saprophyticus by CLSI M100-S18 method; format: functional
[30] = test system: Staphylococcus lugdunensis; assay: Antibacterial activity against Staphylococcus lugdunensis assessed as percent susceptible isolates by CLSI M100-S18 method; format: functional

## Cc1ncc([N+](=O)[O-])n1CCO [METRONIDAZOLE]
Bacteroides fragilis [1]
  Activity: 100%
Prevotella sp. [2]
  Activity: 100%
Peptostreptococcus sp. [3]
  Activity: 98.1%
Fusobacterium sp. [4]
  Activity: 100%
Bacteroides fragilis [5]
  MIC: 2 µg/mL (≈ 11.7 µM)
  MIC50: 2 µg/mL (≈ 11.7 µM)
  MIC90: 2 µg/mL (≈ 11.7 µM)
Cutibacterium acnes [6]
  MIC: > 16 µg/mL
  MIC50: > 16 µg/mL
  MIC90: > 16 µg/mL
Fusobacterium sp. [7]
  MIC50: 0.25 µg/mL (≈ 1.46 µM)
  MIC90: 1 µg/mL (≈ 5.84 µM)
Clostridium perfringens
  MIC50: 2 µg/mL (≈ 11.7 µM)
  MIC90: 4 µg/mL (≈ 23.4 µM)
Prevotella sp. [8]
  MIC50: 4 µg/mL (≈ 23.4 µM)
  MIC90: 4 µg/mL (≈ 23.4 µM)
Peptostreptococcus sp. [9]
  MIC50: 0.5 µg/mL (≈ 2.92 µM)
  MIC90: 1 µg/mL (≈ 5.84 µM)
Cutibacterium acnes [10]
  Activity: 0%

## Cc1onc(-c2ccccc2)c1C(=O)N[C@@H]1C(=O)N2[C@@H]1SC(C)(C)[C@@H]2C(=O)O [OXACILLIN]
Staphylococcus hominis [11]
  MIC50: > 8 µg/mL
  MIC90: > 8 µg/mL
Staphylococcus hominis [12]
  Activity: 16%
[13]
  MIC50: 1 µg/mL (≈ 2.49 µM)
Moraxella catarrhalis
  MIC50: 4 µg/mL (≈ 9.96 µM)
  MIC90: 8 µg/mL (≈ 19.9 µM)
Staphylococcus aureus [14]
  MIC50: 0.25 µg/mL (≈ 0.623 µM)
  MIC90: > 8 µg/mL
[15]
  Activity: 9.9%
[16]
  MIC50: 0.12 µg/mL (≈ 0.299 µM)
[17]
  Activity: 16.7%
Staphylococcus aureus [18]
  Activity: 78.9%
Staphylococcus aureus [19]
  MIC50: > 8 µg/mL
  MIC90: > 8 µg/mL
Staphylococcus warneri [20]
  Activity: 46%
[21]
  Activity: 55.6%
[22]
  MIC50: > 8 µg/mL
  MIC90: > 8 µg/mL
[23]
  MIC50: 0.5 µg/mL (≈ 1.25 µM)
  MIC90: > 8 µg/mL
[24]
  MIC90: inactive
[25]
  MIC90: inactive
[26]
  Activity: 31.7%
Staphylococcus warneri [27]
  MIC50: 0.5 µg/mL (≈ 1.25 µM)
  MIC90: > 8 µg/mL
Staphylococcus aureus [28]
  Activity: 36.4%
[29]
  MIC50: 0.5 µg/mL (≈ 1.25 µM)
  MIC90: 1 µg/mL (≈ 2.49 µM)
[30]
  Activity: 60%
